In US10059701B2 (Merck Patent GmbH, priority 2015, dated 2018):

How the values were obtained:
[1] = molecular target: T1, IRAK1 (Homo sapiens, UniProt P51617); test: IRAK1 enzymatic assay (ADP-Glo luminescence); format: biochemical; conditions: purified human recombinant His-TEV-IRAK1 (194-712)
T1 construct: His-TEV-IRAK1 (194-712); His (N); TEV cleavage site (N)
How it was run: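 Luminescent ADP-Glo read-out of ATP turnover by purified His-TEV-IRAK1 (194-712) at 0.3 μg/ml after a 2-hour RT reaction. Compounds, serially diluted from 10 μM to 0.5 nM, were preincubated with enzyme 15 minutes in Hepes pH 7.0 buffer with MgCl2, DTT, EGTA and Triton X-100.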

[2] = molecular target: T2, IRAK4 (Homo sapiens, UniProt Q9NWZ3); test: IRAK4 enzymatic assay (ADP-Glo luminescence); format: biochemical; conditions: purified human recombinant His-TEV-IRAK4 (1-460), ATP 2 μM
T2 construct: His-TEV-IRAK4 (1-460); His (N); TEV cleavage site (N)
T2 sequence (Q9NWZ3 1-460): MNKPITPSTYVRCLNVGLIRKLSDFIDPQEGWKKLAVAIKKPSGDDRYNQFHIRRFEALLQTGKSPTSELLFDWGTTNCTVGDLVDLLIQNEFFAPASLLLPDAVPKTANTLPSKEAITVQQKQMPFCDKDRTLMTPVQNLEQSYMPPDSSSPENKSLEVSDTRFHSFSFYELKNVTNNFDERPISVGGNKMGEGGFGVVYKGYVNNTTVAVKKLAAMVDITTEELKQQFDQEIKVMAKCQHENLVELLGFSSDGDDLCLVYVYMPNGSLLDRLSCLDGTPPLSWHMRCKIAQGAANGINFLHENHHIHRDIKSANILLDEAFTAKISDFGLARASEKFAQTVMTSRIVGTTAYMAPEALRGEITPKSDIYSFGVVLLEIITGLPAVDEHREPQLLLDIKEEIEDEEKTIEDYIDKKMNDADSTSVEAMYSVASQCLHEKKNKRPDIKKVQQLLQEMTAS
How it was run: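 ADP-Glo luminescence read-out after a 2 h RT kinase reaction with 2 μM ATP and 300 nM biotinylated STK1 peptide. Enzyme (His-TEV-IRAK4 1-460, 0.3 μg/ml) first incubated 15 min with serially diluted compounds (10 μM–0.5 nM) in 50 mM Hepes pH 7.0, 10 mM MgCl2, 5 mM MnCl2.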

T1 sequence (P51617 194-712): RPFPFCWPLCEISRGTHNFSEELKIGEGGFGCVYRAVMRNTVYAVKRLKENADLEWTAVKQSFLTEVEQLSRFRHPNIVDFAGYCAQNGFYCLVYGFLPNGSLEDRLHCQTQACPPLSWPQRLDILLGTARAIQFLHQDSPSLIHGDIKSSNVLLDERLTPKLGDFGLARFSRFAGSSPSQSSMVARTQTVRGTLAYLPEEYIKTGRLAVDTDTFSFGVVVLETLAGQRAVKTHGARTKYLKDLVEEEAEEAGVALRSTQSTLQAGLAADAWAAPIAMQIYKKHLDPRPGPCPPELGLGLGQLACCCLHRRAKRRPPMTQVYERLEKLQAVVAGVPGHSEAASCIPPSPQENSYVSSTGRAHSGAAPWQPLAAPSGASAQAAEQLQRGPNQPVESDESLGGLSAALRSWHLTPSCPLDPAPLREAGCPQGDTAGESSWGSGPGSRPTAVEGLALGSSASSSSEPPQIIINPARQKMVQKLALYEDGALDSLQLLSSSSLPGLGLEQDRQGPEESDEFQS

| Compound | IC50 [1] [µM] | IC50 [2] [µM] |
| --- | --- | --- |
| CC1(C)C(=O)N(c2ccc3c(c2)[nH]/c(=N\C(=O)c2cccc(C(F)F)c2)n3CCCO)CCN1CCO [Example 195, (E)-3-(difluoromethyl)-N-(5-(4-(2-hydroxyethyl)-3,3-dimethyl-2-oxopiperazin-1-yl)-1-(3-hydroxypropyl)-1H-benzo[d]imidazol-2(3H)-ylidene)benzamide] | 0.1 to 1 | ≤ 0.1 |
| O=C(/N=c1\[nH]c2cc(N3CCOCC3=O)ccc2n1CCCO)c1cccc(-c2cc[nH]c(=O)c2)c1 [Compound 107, (E)-N-(1-(3-hydroxypropyl)-5-(3-oxomorpholino)-1H-benzo[d]imidazol-2(3H)-ylidene)-3-(2-oxo-1,2-dihydropyridin-4-yl)benzamide] | ≤ 0.1 | ≤ 0.1 |
| NS(=O)(=O)c1cccc(C(=O)/N=c2\[nH]c3cc(N4CCOCC4=O)ccc3n2CCCO)c1 [Compound 100, (E)-N-(1-(3-hydroxypropyl)-5-(3-oxomorpholino)-1H-benzo[d]imidazol-2(3H)-ylidene)-3-sulfamoylbenzamide] | ≤ 0.1 | ≤ 0.1 |
| Cn1nc(C(=O)/N=c2\[nH]c3cc(N4CCOCC4=O)ccc3n2CCCO)c2ccccc21 [Compound 60, (E)-N-(1-(3-hydroxypropyl)-5-(3-oxomorpholino)-1H-benzo[d]imidazol-2(3H)-ylidene)-1-methyl-1H-indazole-3-carboxamide] | > 1 | > 1 |
| O=C(/N=c1\[nH]c2cc(N3CCOCC3=O)c(F)cc2n1CCCO)c1cccc(C(F)(F)F)c1 [Compound 139, (E)-N-(6-fluoro-1-(3-hydroxypropyl)-5-(3-oxomorpholino)-1H-benzo[d]imidazol-2(3H)-ylidene)-3-(trifluoromethyl)benzamide] | 0.1 to 1 | ≤ 0.1 |
| N#Cc1cccc(C(=O)/N=c2\[nH]c3cc(N4CCOCC4=O)ccc3n2[C@H]2CC[C@@H](O)CC2)c1 [Compound 55, cis-(E)-3-cyano-N-(1-(4-hydroxycyclohexyl)-5-(3-oxomorpholino)-1H-benzo[d]imidazol-2(3H)-ylidene)benzamide] | ≤ 0.1 | ≤ 0.1 |
| CC1(C)OCCN(c2ccc3c(c2)[nH]/c(=N\C(=O)c2cccc(C(F)F)c2)n3CCCO)C1=O [Example 222, (E)-3-(difluoromethyl)-N-(5-(2,2-dimethyl-3-oxomorpholino)-1-(3-hydroxypropyl)-1H-benzo[d]imidazol-2(3H)-ylidene)benzamide] | 0.1 to 1 | ≤ 0.1 |

Now from value to compound:

| IC50 [1] [µM] | IC50 [2] [µM] | Compound |
| --- | --- | --- |
| 0.1 to 1 | ≤ 0.1 | O=C(/N=c1\[nH]c2cc(N3CCCOC3=O)ccc2n1CC1(F)CCOCC1)c1cccc(C(F)F)c1 [Example 228, (E)-3-(difluoromethyl)-N-(1-((4-fluorotetrahydro-2H-pyran-4-yl)methyl)-5-(2-oxo-1,3-oxazinan-3-yl)-1H-benzo[d]imidazol-2(3H)-ylidene)benzamide] |
| 0.1 to 1 | ≤ 0.1 | COc1cc2c(cc1N1CCOCC1=O)[nH]/c(=N\C(=O)c1cccc(C(F)(F)F)c1)n2[C@H](C)CCO [Compound 143, (R,E)-N-(1-(4-hydroxybutan-2-yl)-6-methoxy-5-(3-oxomorpholino)-1H-benzo[d]imidazol-2(3H)-ylidene)-3-(trifluoromethyl)benzamide] |
| 0.1 to 1 | 0.1 to 1 | CC(=O)NCc1cccc(C(=O)/N=c2\[nH]c3cc(N4CCOCC4=O)ccc3n2CCCO)c1 [Compound 47, (E)-3-(acetamidomethyl)-N-(1-(3-hydroxypropyl)-5-(3-oxomorpholino)-1H-benzo[d]imidazol-2(3H)-ylidene)benzamide] |
| > 1 | ≤ 0.1 | O=C(/N=c1\[nH]c2cc(N3CCOCC3=O)c(Cl)cc2n1CCCO)c1cccc(C(F)(F)F)c1 [Compound 141, (E)-N-(6-chloro-1-(3-hydroxypropyl)-5-(3-oxomorpholino)-1H-benzo[d]imidazol-2(3H)-ylidene)-3-(trifluoromethyl)benzamide] |
